Several values for one entry are separate records, joined by “and”; a condition that tells them apart may be missing. Identical values can stand only once. Like-named read-outs stand apart in the source and are kept apart here. Values belong to the compound of their own block, whether it stands above or below them.
Tests used:
SK‐N‐BE(2)‐C cells [1] = assay: LysoTracker assay, flow cytometry; type: cell-based; settings: for increase of LysoTracker signal normalized against DMSO control: concentration differs per compound (Table 8)
SK‐N‐BE(2)‐C cells [2] = assay: LysoTracker assay, fluorescence microscopy; type: cell-based; settings: 24 h after treatment
drHDAC10 [3] = target: T1, drHDAC10 (Danio rerio, UniProt F1QCV2); assay: NDA assay drHDAC10; settings: for inhibition at 0.1 µM / inhibition at 1 µM: read-out: NDA assay drHDAC10 % inhibition
T1 sequence (F1QCV2 2-675 limits assumed): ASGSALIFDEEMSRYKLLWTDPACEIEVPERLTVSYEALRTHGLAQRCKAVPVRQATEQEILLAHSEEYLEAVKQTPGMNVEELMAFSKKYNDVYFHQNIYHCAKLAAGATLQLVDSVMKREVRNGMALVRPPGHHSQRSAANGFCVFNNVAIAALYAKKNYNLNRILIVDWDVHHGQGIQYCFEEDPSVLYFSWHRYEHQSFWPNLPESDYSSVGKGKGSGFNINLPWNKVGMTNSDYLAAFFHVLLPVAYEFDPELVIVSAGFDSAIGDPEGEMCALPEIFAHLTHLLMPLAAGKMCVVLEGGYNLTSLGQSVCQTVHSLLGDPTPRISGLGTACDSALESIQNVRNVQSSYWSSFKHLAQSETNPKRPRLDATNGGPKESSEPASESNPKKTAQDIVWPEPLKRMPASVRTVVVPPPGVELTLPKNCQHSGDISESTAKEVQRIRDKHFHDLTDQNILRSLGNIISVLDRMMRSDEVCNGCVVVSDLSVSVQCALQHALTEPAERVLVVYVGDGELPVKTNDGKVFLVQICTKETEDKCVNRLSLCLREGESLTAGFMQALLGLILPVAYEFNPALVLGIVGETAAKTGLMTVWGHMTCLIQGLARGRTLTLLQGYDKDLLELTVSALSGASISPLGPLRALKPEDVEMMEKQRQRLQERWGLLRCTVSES

hHDAC1 = hHDAC1 (Homo sapiens, UniProt Q13547); type: biochemical
hHDAC6 = target: T2, hHDAC6 (Homo sapiens, UniProt Q9UBN7); assay: hHDAC6 activity assay; type: biochemical
T2 sequence (Q9UBN7 1-1215): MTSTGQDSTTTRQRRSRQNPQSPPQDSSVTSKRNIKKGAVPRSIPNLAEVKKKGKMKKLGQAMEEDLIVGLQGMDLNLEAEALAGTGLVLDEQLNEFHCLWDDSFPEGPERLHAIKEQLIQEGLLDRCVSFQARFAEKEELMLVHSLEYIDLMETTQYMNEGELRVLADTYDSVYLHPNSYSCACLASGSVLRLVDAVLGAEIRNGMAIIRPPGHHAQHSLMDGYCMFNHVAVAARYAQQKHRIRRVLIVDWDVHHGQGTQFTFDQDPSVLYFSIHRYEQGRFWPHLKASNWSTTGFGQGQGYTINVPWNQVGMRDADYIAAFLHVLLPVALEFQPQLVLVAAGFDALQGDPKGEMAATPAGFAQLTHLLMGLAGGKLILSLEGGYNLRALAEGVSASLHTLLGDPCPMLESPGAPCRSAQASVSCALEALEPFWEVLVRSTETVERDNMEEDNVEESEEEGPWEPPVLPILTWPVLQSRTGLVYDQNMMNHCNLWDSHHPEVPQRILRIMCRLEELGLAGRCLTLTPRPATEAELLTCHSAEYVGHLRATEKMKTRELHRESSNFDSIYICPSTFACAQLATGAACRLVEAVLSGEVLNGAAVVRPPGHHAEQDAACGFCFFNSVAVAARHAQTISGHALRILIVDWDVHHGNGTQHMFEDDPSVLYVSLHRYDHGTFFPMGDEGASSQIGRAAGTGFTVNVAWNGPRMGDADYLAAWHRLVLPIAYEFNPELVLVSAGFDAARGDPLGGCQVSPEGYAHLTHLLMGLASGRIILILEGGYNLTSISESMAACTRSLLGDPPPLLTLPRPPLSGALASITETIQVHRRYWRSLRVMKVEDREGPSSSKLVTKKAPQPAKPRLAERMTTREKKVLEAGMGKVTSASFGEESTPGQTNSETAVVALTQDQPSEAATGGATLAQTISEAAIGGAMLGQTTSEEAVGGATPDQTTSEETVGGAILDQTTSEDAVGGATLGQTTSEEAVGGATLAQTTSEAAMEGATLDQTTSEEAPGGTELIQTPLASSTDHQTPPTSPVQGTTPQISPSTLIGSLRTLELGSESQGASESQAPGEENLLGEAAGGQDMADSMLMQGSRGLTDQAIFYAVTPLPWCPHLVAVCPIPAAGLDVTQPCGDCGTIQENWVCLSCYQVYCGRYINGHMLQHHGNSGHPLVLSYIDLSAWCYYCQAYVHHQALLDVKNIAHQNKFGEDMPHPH

hHDAC8 = target: T3, hHDAC8 (Homo sapiens, UniProt Q9BY41); assay: biochemical
T3 sequence (Q9BY41 1-377): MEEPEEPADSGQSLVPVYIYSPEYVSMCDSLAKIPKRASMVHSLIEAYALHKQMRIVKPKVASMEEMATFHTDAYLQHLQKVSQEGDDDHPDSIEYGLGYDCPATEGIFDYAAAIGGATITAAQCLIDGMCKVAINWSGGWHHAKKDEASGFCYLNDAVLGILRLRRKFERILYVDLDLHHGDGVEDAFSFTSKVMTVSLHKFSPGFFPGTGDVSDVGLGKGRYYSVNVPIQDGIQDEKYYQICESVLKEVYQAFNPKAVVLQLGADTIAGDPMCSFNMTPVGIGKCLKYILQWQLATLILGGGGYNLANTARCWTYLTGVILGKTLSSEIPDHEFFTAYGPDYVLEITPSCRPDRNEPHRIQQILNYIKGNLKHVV

HDAC10 [4] = target: T4, HDAC10 (Homo sapiens, UniProt Q969S8); assay: BRET assay for HDAC10; type: cell-based
T4 sequence (Q969S8 1-669): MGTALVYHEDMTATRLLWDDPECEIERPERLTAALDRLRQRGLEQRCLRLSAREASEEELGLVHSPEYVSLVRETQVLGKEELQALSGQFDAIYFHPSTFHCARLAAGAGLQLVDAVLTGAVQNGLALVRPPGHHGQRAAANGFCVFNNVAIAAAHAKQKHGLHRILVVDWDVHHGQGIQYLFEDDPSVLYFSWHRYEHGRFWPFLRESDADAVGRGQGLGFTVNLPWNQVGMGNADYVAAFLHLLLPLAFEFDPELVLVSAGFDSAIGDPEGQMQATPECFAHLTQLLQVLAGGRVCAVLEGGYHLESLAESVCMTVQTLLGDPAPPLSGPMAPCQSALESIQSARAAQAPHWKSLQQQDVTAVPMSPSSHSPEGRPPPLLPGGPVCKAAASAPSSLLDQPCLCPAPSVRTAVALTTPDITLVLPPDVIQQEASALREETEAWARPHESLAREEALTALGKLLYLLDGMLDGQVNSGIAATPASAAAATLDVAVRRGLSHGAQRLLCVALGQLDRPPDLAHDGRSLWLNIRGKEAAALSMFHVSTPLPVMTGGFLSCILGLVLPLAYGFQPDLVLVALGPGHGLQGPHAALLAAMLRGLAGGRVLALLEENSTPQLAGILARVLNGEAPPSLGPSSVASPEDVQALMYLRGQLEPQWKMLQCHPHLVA

acetyl Histone H3 = assay: Western blotting, acetylation of histone H3 in HL60 cells; type: cell-based; settings: Western blot, 48 a/b at 10 μM
acetyl tubulin = assay: Western blotting, acetylated tubulin in HL60 cells; type: cell-based; settings: Western blot, 48 a/b at 10 μM
HDAC10 [5] = target: T4, HDAC10; assay: HDAC10 binding assay
drHDAC10 [6] = target: T1, drHDAC10; assay: Proof of substrate conversion by HPLC; type: biochemical, Danio rerio (zebrafish); settings: drHDAC10 0.027 mg/mL, up to 45 min
HDAC10 [7] = target: T4, HDAC10; settings: read-out: BRET assay (EC50); in‐cellulo; ref 32 (Géraldy et al.); cited from earlier work
SK‐N‐BE(2)‐C cells [8] = settings: 7.5 μM, flow cytometry; ref 16b; cited from earlier work
HDAC10 [9] = target: T4, HDAC10; settings: TR‐FRET and BRET displacement assays; cited from earlier work
[10] = @ 1 (concentration unit not given)
[11] = @ 10 (concentration unit not given)

Sequence of hHDAC1 (Q13547 whole entry): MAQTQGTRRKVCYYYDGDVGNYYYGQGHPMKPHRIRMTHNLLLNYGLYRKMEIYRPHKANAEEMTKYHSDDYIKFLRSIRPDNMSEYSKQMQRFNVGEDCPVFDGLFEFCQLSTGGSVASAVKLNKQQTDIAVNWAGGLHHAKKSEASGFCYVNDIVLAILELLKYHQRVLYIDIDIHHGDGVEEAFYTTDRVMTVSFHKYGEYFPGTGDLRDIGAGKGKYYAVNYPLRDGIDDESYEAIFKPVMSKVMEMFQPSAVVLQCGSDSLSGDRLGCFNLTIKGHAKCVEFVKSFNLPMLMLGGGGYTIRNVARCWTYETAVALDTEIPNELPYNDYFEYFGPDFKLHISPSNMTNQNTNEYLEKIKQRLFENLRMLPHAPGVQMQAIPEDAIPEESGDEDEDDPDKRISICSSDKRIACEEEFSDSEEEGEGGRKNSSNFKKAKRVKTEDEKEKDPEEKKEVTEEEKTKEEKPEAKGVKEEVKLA

SMILES: CN(C)Cc1c(C(=O)NCCOc2ccc(C(=O)NO)cc2)oc2ccccc12 [abexinostat]
increase of LysoTracker signal normalized against DMSO control (SK‐N‐BE(2)‐C cells [1]): up to 3 fold | accumulation of lysosomes, LysoTracker signal by fluorescence microscopy (SK‐N‐BE(2)‐C cells [2]): very strong response | IC50 (drHDAC10 [3]): 134 ± 26 nM | inhibition at 0.1 µM (drHDAC10 [3]): 45% | inhibition at 1 µM (drHDAC10 [3]): > 95%

SMILES: O=C(NO)C1CCN(CCNCc2ccc(Br)cc2)CC1 [48 b, 1‐(2‐((4‐Bromobenzyl)amino)ethyl)‐N‐hydroxypiperidine‐4‐carboxamide]
hHDAC1 (ZMAL) % inhibition (hHDAC1; [10]): < 10% | hHDAC1 (ZMAL) % inhibition (hHDAC1; [11]): 11% | hHDAC6 (ZMAL) % inhibition (hHDAC6; [10]): < 10% | hHDAC6 (ZMAL) % inhibition (hHDAC6; [11]): 11% | IC50 (hHDAC8; inhibition of HDAC8): ~1000 nM | EC50 (HDAC10 [4]): 10 nM | effect on acetyl Histone H3 (class I, representative HDAC1) (acetyl Histone H3): no increase | effect on acetyl tubulin (HDAC6) (acetyl tubulin): no increase | LysoTracker effect (relative signal intensity as compared to control) (SK‐N‐BE(2)‐C cells [1]; 10 μM): 1.07±0.15 | LysoTracker effect (relative signal intensity as compared to control) (SK‐N‐BE(2)‐C cells [1]; 20.0 μM): 1.04±0.05 | increase of LysoTracker signal normalized against DMSO control (SK‐N‐BE(2)‐C cells [1]): did not show an increase in signal | IC50 (HDAC10 [5]): 2 nM

SMILES: CCCCOc1ccc(CC(=O)NO)cc1 [bufexamac]
inhibition at 0.1 µM (drHDAC10 [3]): 26% | inhibition at 1 µM (drHDAC10 [3]): 64%

SMILES: CC(=O)NCCCCNCCC(=O)Nc1ccc2c(C)cc(=O)oc2c1 [Ac‐spermidine‐AMC, 3‐((4‐Acetamidobutyl)amino)‐N‐(4‐methyl‐2‐oxo‐2H‐chromen‐7‐yl)propanamide]
maximal conversion by drHDAC10 (HPLC, fluorescamine derivatization) (drHDAC10 [6]): about 50%

SMILES: O=C(NO)C1CCN(CCNCc2ccccc2)CC1 [48 a, 1‐(2‐(Benzylamino)ethyl)‐N‐hydroxypiperidine‐4‐carboxamide]
hHDAC1 (ZMAL) % inhibition (hHDAC1; [10]): < 10% | hHDAC1 (ZMAL) % inhibition (hHDAC1; [11]): 20% | hHDAC6 (ZMAL) % inhibition (hHDAC6; [10]): <10 % @ 10 <10 % @ 1 | hHDAC6 (ZMAL) % inhibition (hHDAC6; [11]): <10 % @ 10 <10 % @ 1 | IC50 (hHDAC8; hHDAC8 (FDL) IC50): 1970 ± 309 nM | IC50 (hHDAC8; inhibition of HDAC8): ~1000 nM | EC50 (HDAC10 [4]): 26 nM | effect on acetyl Histone H3 (class I, representative HDAC1) (acetyl Histone H3): no increase | effect on acetyl tubulin (HDAC6) (acetyl tubulin): no increase | IC50 (HDAC10 [5]): 5 nM

SMILES: O=C(CCCCCCC(=O)Nc1ccc([C@H]2O[C@@H](CSc3nc(-c4ccccc4)c(-c4ccccc4)o3)C[C@@H](c3ccc(CO)cc3)O2)cc1)NO [tubacin]
accumulation of lysosomes, LysoTracker signal by fluorescence microscopy (SK‐N‐BE(2)‐C cells [2]): No influence | LysoTracker effect (relative signal intensity as compared to control) (SK‐N‐BE(2)‐C cells [8]): 1.1 and 1.1±0.07

More lines, main results first:

inhibition at 0.1 µM (drHDAC10 [3]): < 10% | inhibition at 1 µM (drHDAC10 [3]): < 10%
SMILES: Nc1ccccc1NC(=O)c1ccc(CNc2nccc(-c3cccnc3)n2)cc1 [mocetinostat]

IC50 (drHDAC10 [3]): 2000 ± 240 nM | inhibition at 0.1 µM (drHDAC10 [3]): < 10% | inhibition at 1 µM (drHDAC10 [3]): 43%
SMILES: O=C(CCCCCCC(=O)Nc1ccccc1)NO [vorinostat]
effect on acetyl Histone H3 (class I, representative HDAC1) (acetyl Histone H3): robust hyperacetylation | effect on acetyl tubulin (HDAC6) (acetyl tubulin): robust hyperacetylation

IC50 (drHDAC10 [3]): 50 nM | inhibition at 0.1 µM (drHDAC10 [3]): 60% | inhibition at 1 µM (drHDAC10 [3]): 91%
SMILES: Cn1cc(CNCC2CCN(c3ncc(C(=O)NO)cn3)CC2)c2ccccc21 [quisinostat]
increase of LysoTracker signal normalized against DMSO control (SK‐N‐BE(2)‐C cells [1]): up to 3 fold | accumulation of lysosomes, LysoTracker signal by fluorescence microscopy (SK‐N‐BE(2)‐C cells [2]): very strong response | EC50 (HDAC10 [7]): 40 nM

IC50 (drHDAC10 [3]): 30 ± 3 nM | inhibition at 0.1 µM (drHDAC10 [3]): 82% | inhibition at 1 µM (drHDAC10 [3]): > 95%
SMILES: CN1CCc2c(c3ccccc3n2Cc2ccc(C(=O)NO)cc2)C1 [tubastatin A]
HDAC10 binding in displacement assays (HDAC10 [9]): bound strongly

inhibition at 0.1 µM (drHDAC10 [3]): 65% | inhibition at 1 µM (drHDAC10 [3]): > 95%
SMILES: Cc1[nH]c2ccccc2c1CCNCc1ccc(/C=C/C(=O)NO)cc1 [panobinostat]
increase of LysoTracker signal normalized against DMSO control (SK‐N‐BE(2)‐C cells [1]): up to 3 fold | accumulation of lysosomes, LysoTracker signal by fluorescence microscopy (SK‐N‐BE(2)‐C cells [2]): very strong response

Reference: PMC9308754 (Chembiochem, 2022)
